# From PMC4106900 (Journal of medicinal chemistry, 2012)
# Where a name gives a salt, the structure may show the parent alone.
# What was measured:
# [1] = Stability of formulated [18F]13 by analytical reverse-phase HPLC; type: physicochemical; conditions: saline/ethanol (9:1, total 10 mL)
# [2] = Small-animal PET imaging, baseline brain uptake of [18F]13; type: in vivo, mouse
# [3] = Ex vivo determination of radiometabolites in mouse plasma, liver and brain
# [4] = target: emopamil binding protein (EBP); conditions: read-out: Ki for EBP; cited from earlier work
# [5] = target: vesicular acetylcholine transporter (VAChT); conditions: read-out: Ki for VAChT; cited from earlier work
# [6] = cited from earlier work; for time of maximum uptake in the brain post injection: normal mice
# S1R = conditions: read-out: Ki for S1R; cited from earlier work
# [7] = test system: 59 targets (non-SR sites); assay: NovaScreen and in-house profile of 59 targets; type: binding; conditions: 10,000 nM screening concentration
# α2-adrenoceptors = assay: NovaScreen radioligand displacement screen; type: binding; conditions: 100 nM screening concentration
# [8] = test system: peripheral muscarinic receptors; assay: NovaScreen radioligand displacement screen; type: binding; conditions: 100 nM screening concentration
# [9] = test system: neuronal (α-bungarotoxin insensitive) nicotinic receptors; assay: NovaScreen radioligand displacement screen; type: binding; conditions: 100 nM screening concentration
# opioid receptors = assay: Radioligand displacement screen; type: binding; conditions: 100 nM screening concentration
# calcium L type channels = assay: NovaScreen radioligand displacement screen; type: binding; conditions: 100 nM screening concentration
# sodium, site 2 channels = assay: NovaScreen radioligand displacement screen; type: binding; conditions: 100 nM screening concentration
# acetylcholine esterase = acetylcholine esterase (Homo sapiens, UniProt P22303); assay: NovaScreen radioligand displacement screen; type: binding; conditions: 100 nM screening concentration
# Chain of acetylcholine esterase (P22303 32-614): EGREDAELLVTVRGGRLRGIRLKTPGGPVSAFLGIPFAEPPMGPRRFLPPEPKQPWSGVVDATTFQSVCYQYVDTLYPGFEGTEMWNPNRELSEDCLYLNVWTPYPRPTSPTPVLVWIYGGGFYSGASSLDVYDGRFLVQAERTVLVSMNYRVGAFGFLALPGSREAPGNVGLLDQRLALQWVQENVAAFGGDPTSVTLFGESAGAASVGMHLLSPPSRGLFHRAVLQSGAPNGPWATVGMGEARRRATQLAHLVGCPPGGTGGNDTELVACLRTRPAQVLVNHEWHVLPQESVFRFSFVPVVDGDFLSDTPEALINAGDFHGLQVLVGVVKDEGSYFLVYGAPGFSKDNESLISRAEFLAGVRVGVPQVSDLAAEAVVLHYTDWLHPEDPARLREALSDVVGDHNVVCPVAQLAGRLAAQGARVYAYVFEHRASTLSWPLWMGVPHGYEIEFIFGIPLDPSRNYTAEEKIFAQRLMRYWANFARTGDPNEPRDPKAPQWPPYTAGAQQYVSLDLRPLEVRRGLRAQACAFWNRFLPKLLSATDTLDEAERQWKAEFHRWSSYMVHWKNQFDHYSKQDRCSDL
# [10] = In vitro half-life in rat liver microsomes
# S1Rs = S1Rs (Mus musculus, UniProt O55242); assay: Small-animal PET blocking studies of [18F]13 binding in brain; type: in vivo; conditions: pre-treatment 1 mg/kg, 10 min prior to iv [18F]13, whole mouse brain
# Chain of S1Rs (O55242 whole entry): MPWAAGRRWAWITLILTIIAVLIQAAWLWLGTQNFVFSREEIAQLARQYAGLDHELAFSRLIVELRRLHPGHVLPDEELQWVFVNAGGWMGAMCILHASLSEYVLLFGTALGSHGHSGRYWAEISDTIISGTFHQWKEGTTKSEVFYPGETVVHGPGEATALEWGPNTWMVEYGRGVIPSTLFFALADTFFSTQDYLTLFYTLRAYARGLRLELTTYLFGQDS
smiles,measurement,setting,value
"O=c1sc2cc(CCCF)ccc2n1CCN1CCCCCC1 [[^18F]13, 6-(3-fluoropropyl)-3-(2-(azepan-1-yl)ethyl)benzo[d]thiazol-2(3H)-one]",time formulated tracer shown to be stable,[1],at least 5.5 hours
same,brain uptake at 60 min,"[2]; baseline TAC, whole mouse brain",6 %ID/g
same,maximum uptake in brain,"[2]; baseline TAC, whole mouse brain, within the first few minutes",~ 17 %ID/g
same,brain uptake at 60 min post injection as percent of maximum,[2]; mouse brain,65%
same,percentage of intact tracer in plasma,[3]; 30 min post administration,60%
same,percentage of intact tracer in plasma,[3]; 60 min post administration,50%
same,percentage of intact tracer in brain,[3]; throughout the study (30 and 60 min),100%
COc1cc(CCN2CCN(CCCc3ccccc3)CC2)ccc1O[11CH3] [compound 3],Ki,[4],1.7 nM
same,Ki,[5],50 nM
COc1cc(CCN2CCN(CCCc3ccccc3)CC2)ccc1OC[18F] [compound 4],time of maximum uptake in the brain post injection,[6],30 min
FCCC1OC2(CCN(Cc3ccccc3)CC2)c2ccccc21 (centres unmarked) [compound 8],brain level at 60 min post injection as percent of maximum,"[6]; mouse brain, biodistribution",81%
same,time of maximum uptake in the brain post injection,[6],30 min
CCCc1ccc2c(c1)sc(=O)n2CCN1CCCCCC1 [compound 9],Ki,S1R,0.56 nM
"O=c1sc2cc(CCCF)ccc2n1CCN1CCCCCC1 [compound 13, 3-(2-(azepan-1-yl)ethyl)-6-(3-fluoropropyl)benzo[d]thiazol-2(3H)-one hydrochloride]",displacement of the radioligand,[7],< 50%
same,displacement of the radioligand,α2-adrenoceptors,< 50%
same,displacement of the radioligand,[8],< 50%
same,displacement of the radioligand,[9],< 50%
same,displacement of the radioligand,opioid receptors,< 50%
same,displacement of the radioligand,calcium L type channels,< 50%
same,displacement of the radioligand,"sodium, site 2 channels",< 50%
same,displacement of the radioligand,acetylcholine esterase,< 50%
same,clearance,[10],0.18 mL/min/g
"CN(C)CCN(C)CCc1ccc(Cl)c(Cl)c1 [compound 18, N-[2-(3,4-dichlorophenyl)ethyl]-N-methyl-2-(dimethylamino)-ethylamine]",reduction of [18F]13 binding in the brain at 60 min,S1Rs,81%
